In patent US9670462B2, “Bioactive surface for hepatocyte-based applications” (priority 2006, dated 2017):

System: hepatocytes

| Structure (SMILES) | effect on hepatocyte monolayer maintained on PET-Hybrid (soluble peptide 100 μM in culture medium) | toxicity to the hepatocytes (soluble peptide, treatment for 24 h) | morphological changes of 3D spheroids, pre-spheroid monolayer or 2D hepatocyte monolayer |
| --- | --- | --- | --- |
| N=C(N)NCCC[C@H](NC(=O)CN)C(=O)NCC(=O)N[C@@H](CC(=O)O)C(=O)N[C@@H](CO)C(=O)O [GRGDS] | destabilized the hepatocyte monolayer | slight toxicity | – |
| NCCCCCCOC1O[C@H](CO)[C@H](O)[C@H](O)[C@H]1O (stereo partly drawn) [galactose ligands, 1-O-(6′-aminohexyl)-D-galactopyranoside] | – | – | did not induce any morphological changes |
